According to patent publication US7202242B2, “Substituted 1 and 2-naphthol Mannich bases” (Gruenenthal GmbH, priority 1999, dated 2007):

tested on: phenylquinone-induced writhing; test: Analgesia test in the phenylquinone-induced writhing test in mice; type: in vivo; conditions: male NMRI mice; 10 mg/kg intravenous, 10 minutes before phenylquinone i.p.; writhing counted 5–20 minutes after phenylquinone
Protocol: The in-depth investigation for analgesic activity was carried out in the phenylquinone-induced writhing in mice (modified by I. C. Hendershot, J. Forsaith, J. Pharmacol. Exp. Ther. 125, 237–240 (1959)). Male NMRI mice weighing 25–30 g were used for this. Groups of 10 animals per substance dose received 0.3 ml/mouse of a 0.02% aqueous solution of phenylquinone (phenylbenzoquinone, Sigma, Deisenhofen; preparation of the solution with the addition of 5% ethanol and storage in a water bath at 45° C.) administered intraperitoneally 10 minutes after intravenous administration of the test substances. The animals were placed individually in observation cages. The number of pain-induced stretching movements (so-called writhing reactions=straightening of the body with stretching of the hind extremities) were counted by means of a push-button counter for 5–20 minutes after the administration of phenylquinone. Animals which received only physiological saline solution were also run as a control.
The substances were tested in the standard dose of 10 mg/kg. The inhibition of the writhing reactions by a substance was calculated according to the following equation: […]
The in-depth investigation for analgesic activity was carried out in the phenylquinone-induced writhing in mice as described above.

SMILES | Inhibition of the writhing reaction in % [%]
COc1ccc(COc2c(C(c3ccccc3)N(C)C)ccc3ccccc23)cc1 (stereo not drawn) [Example 37, {[1-(4-Methoxy-benzyloxy)-naphthalen-2-yl]-phenylmethyl}-dimethylamine] | 40
COc1ccc(COc2ccc3ccccc3c2C(c2ccccc2)N(C)C)cc1 (stereo not drawn) [Example 38, {[2-(4-Methoxybenzyloxy)-naphthalen-1-yl]-phenylmethyl}-dimethylamine] | 81
COc1ccc(C(=O)Oc2ccc3ccccc3c2C(c2ccccc2)N(C)C)cc1 (stereo not drawn) [Example 39, 4-Methoxybenzoic acid 1-(dimethylaminophenylmethyl)-naphthalen-2-yl ester] | 21
CN(C)C(c1ccccc1)c1c(OC(=O)c2ccccc2Cl)ccc2ccccc12 (stereo not drawn) [Example 40, 2-Chlorobenzoic acid 1-(dimethylaminophenylmethyl)-naphthalen-2-yl ester] | 48
Oc1ccc2ccccc2c1C(c1ccccc1)N1CCOCC1 (stereo not drawn) [Example 41, 1-(Morpholin-4-yl-phenylmethyl]-naphthalen-2-ol] | 30
Oc1ccc2ccccc2c1C(c1ccccc1)N1CCCCC1 (stereo not drawn) [Example 42, 1-(Phenylpiperidin-1-yl-methyl)-naphthalen-2-ol] | 92
